Experimental data from ChEMBL document CHEMBL1201862, “PubChem BioAssay data set” (2004).
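Five compound concentrations were applied to cells in 96-well plates for 48 hours; endpoints were derived by simple linear interpolation of the resulting dose-response curve. The concentration for 50% growth inhibition is given as GI50.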 Active and inactive are the calls of the source. Cut-off read from the data, not from the text of the source: active = GI50 up to about 1.1 µM and inactive = higher.

Assays:
Assay in all cases: NCI anticancer screen, dose series, 48 h
A549 = system: A549
CCRF-CEM = system: CCRF-CEM
EKVX = system: EKVX
HOP-62 = system: HOP-62
LOX IMVI = system: LOX IMVI
M14 = system: M14
OVCAR-4 = system: OVCAR-4
SF-268 = system: SF-268
SF-295 = system: SF-295
SN12C = system: SN12C
SNB-75 = system: SNB-75
TK-10 = system: TK-10
UO-31 = system: UO-31
SR = system: SR

Measured: GI50

CCOc1ccc2c(c1)[n+]([O-])c(-c1ccc(Br)cc1)c(N)[n+]2[O-]
inactive: A549 59.6 µM | CCRF-CEM 53.1 µM | EKVX 52.8 µM | HOP-62 67.6 µM | LOX IMVI > 100 µM | M14 49 µM | OVCAR-4 > 100 µM | SF-268 42.8 µM | SF-295 > 100 µM | SN12C 71 µM | SNB-75 > 100 µM | TK-10 > 100 µM | UO-31 67.3 µM

C[C@]12CCC3[C@@H](CC[C@@H]4c5nonc5CC[C@]34C)C1CCC2=O (stereo partly specified)
inactive: A549 27.8 µM | CCRF-CEM 21.8 µM | EKVX 19.9 µM | HOP-62 40.6 µM | LOX IMVI 19.6 µM | M14 18.3 µM | OVCAR-4 23.8 µM | SF-268 33.6 µM | SF-295 24.1 µM | SN12C 21.5 µM | SNB-75 35.4 µM | TK-10 29 µM | UO-31 11.3 µM

O=C1C[C@@H]2[C@@H](CCC23CCCC3)N1
inactive: A549 > 100 µM | CCRF-CEM > 100 µM | EKVX > 100 µM | HOP-62 > 100 µM | LOX IMVI > 100 µM | M14 > 100 µM | OVCAR-4 > 100 µM | SF-268 > 100 µM | SF-295 > 100 µM | SN12C > 100 µM | SNB-75 > 100 µM | TK-10 > 100 µM | UO-31 > 100 µM

O=C1OC(=O)C2C1C1C(c3ccccc3)=C(c3ccccc3)C2(O)C2C(=O)OC(=O)C12 (stereo unspecified)
inactive: A549 > 100 µM | CCRF-CEM 37.5 µM | EKVX > 100 µM | HOP-62 > 100 µM | M14 > 100 µM | OVCAR-4 > 100 µM | SF-268 > 100 µM | SF-295 > 100 µM | SN12C 96.2 µM | SNB-75 27.9 µM | SR 78.5 µM | TK-10 > 100 µM | UO-31 > 100 µM

CC(C)(C)OC(=O)NCCc1cccc2c1oc1c(CCC(=O)O)cccc12
inactive: A549 > 100 µM | CCRF-CEM > 100 µM | LOX IMVI > 100 µM | M14 > 100 µM | OVCAR-4 > 100 µM | SF-268 > 100 µM | SF-295 > 100 µM | SN12C > 100 µM | SNB-75 95.9 µM | SR > 100 µM | TK-10 > 100 µM | UO-31 > 100 µM

O=C(O)CN(c1ccc(F)cc1)S(=O)(=O)c1ccccc1
inactive: A549 > 100 µM | CCRF-CEM > 100 µM | EKVX > 100 µM | LOX IMVI > 100 µM | M14 > 100 µM | OVCAR-4 > 100 µM | SF-268 > 100 µM | SF-295 > 100 µM | SN12C > 100 µM | SNB-75 > 100 µM | TK-10 > 100 µM | UO-31 > 100 µM

Cc1c(C)n(COCCO)c2ncnc(N)c12
inactive: A549 > 100 µM | CCRF-CEM > 100 µM | EKVX > 100 µM | M14 > 100 µM | OVCAR-4 > 100 µM | SF-268 > 100 µM | SF-295 > 100 µM | SN12C > 100 µM | SNB-75 > 100 µM | SR > 100 µM | TK-10 > 100 µM | UO-31 > 100 µM

COC(=O)CCC(=O)CC(=O)C(=O)Nc1ccc(F)cc1
inactive: A549 > 100 µM | CCRF-CEM > 100 µM | EKVX > 100 µM | HOP-62 > 100 µM | LOX IMVI > 100 µM | M14 > 100 µM | OVCAR-4 > 100 µM | SF-268 > 100 µM | SN12C > 100 µM | SNB-75 > 100 µM | TK-10 > 100 µM | UO-31 > 100 µM

Cc1ccc(NC(=O)CC/C(CC(=O)C(C)(C)C)=N/NC(=O)C(N)=O)cc1C
inactive: A549 > 100 µM | CCRF-CEM > 100 µM | EKVX > 100 µM | HOP-62 > 100 µM | M14 > 100 µM | OVCAR-4 > 100 µM | SF-268 > 100 µM | SF-295 > 100 µM | SN12C > 100 µM | SNB-75 > 100 µM | SR > 100 µM | TK-10 > 100 µM | UO-31 > 100 µM

O=C1c2ccccc2C(=O)c2c(O)c(O)cc(O)c21 [PURPURIN]
inactive: A549 44.7 µM | CCRF-CEM 35 µM | EKVX 50.9 µM | HOP-62 23.7 µM | LOX IMVI 43.7 µM | M14 41.3 µM | OVCAR-4 41 µM | SF-268 42.4 µM | SF-295 51.6 µM | SN12C 34.7 µM | SNB-75 85.9 µM | TK-10 81.3 µM | UO-31 19 µM

O=C1C=CC(=O)c2c1ccc1c3ccccc3n(-c3ccccn3)c21
inactive: A549 > 100 µM | CCRF-CEM 2.5 µM | EKVX 13.8 µM | M14 27.5 µM | OVCAR-4 15.5 µM | SF-268 31.7 µM | SF-295 > 100 µM | SN12C 55.1 µM | SNB-75 > 100 µM | TK-10 16.7 µM | UO-31 19.1 µM

COC(=O)C1=C(C(=O)OC)C2(C(=O)OC)OC1(OC)C(C1(C(=O)OC)C(C(=O)OC)=C1C(=O)OC)=C2C(=O)OC (stereo unspecified)
inactive: A549 > 100 µM | CCRF-CEM > 100 µM | EKVX > 100 µM | HOP-62 > 100 µM | LOX IMVI > 100 µM | M14 > 100 µM | SF-268 > 100 µM | SF-295 > 100 µM | SN12C > 100 µM | SNB-75 > 100 µM | SR > 100 µM | TK-10 > 100 µM | UO-31 > 100 µM

COc1ccc2c(CCNC(=O)/C=C/c3ccccc3)c(C(C)=O)[nH]c2c1[N+](=O)[O-]
inactive: A549 8.05 µM | CCRF-CEM 5.35 µM | HOP-62 18.8 µM | LOX IMVI 5.64 µM | M14 7.33 µM | OVCAR-4 21.8 µM | SF-268 4.26 µM | SF-295 3.87 µM | SN12C 42.4 µM | SR 7.28 µM | UO-31 31.3 µM

C=CC1=CSNN1
inactive: A549 > 100 µM | CCRF-CEM > 100 µM | EKVX > 100 µM | HOP-62 > 100 µM | LOX IMVI > 100 µM | M14 > 100 µM | OVCAR-4 > 100 µM | SF-268 > 100 µM | SF-295 > 100 µM | SN12C > 100 µM | SNB-75 > 100 µM | TK-10 > 100 µM | UO-31 > 100 µM

O=S1(=O)NN=C(NCc2ccc(Cl)cc2)c2ccccc21
inactive: A549 > 100 µM | CCRF-CEM 45.2 µM | EKVX 46.9 µM | LOX IMVI 69 µM | M14 74 µM | OVCAR-4 > 100 µM | SF-268 > 100 µM | SF-295 > 100 µM | SN12C > 100 µM | UO-31 > 100 µM

Nc1ccn(CCCC(c2ccccc2)P(=O)(O)O)c(=O)n1 (stereo unspecified)
inactive: A549 > 100 µM | CCRF-CEM > 100 µM | HOP-62 > 100 µM | LOX IMVI > 100 µM | M14 > 100 µM | SF-268 > 100 µM | SF-295 > 100 µM | SN12C > 100 µM | SNB-75 > 100 µM | SR > 100 µM | TK-10 > 100 µM | UO-31 > 100 µM
